Assay results as given in patent publication US10052311B2, “PPAR compounds for use in the treatment of fibrotic diseases” (INVENTIVA, priority 2014, dated 2018).

Legend:
anti-GBM exposed mice = assay: Anti-GBM induced glomerulonephritis in mice; format: in vivo, mouse; conditions: vs vehicle
bleomycin-exposed mice [1] = assay: Bleomycin-induced skin fibrosis in mice; format: in vivo, mouse; conditions: vs vehicle
Experimental: The experiments were carried out on 6-week-old male C56BL/6 mice (Janvier, Le Genest-Saint-Isle, France).
0.9% NaCl was used as control (100 μL subcutaneous injections).
On day 21, mice were sacrificed by cervical dislocation, and skin samples were taken and processed for analysis.
Lesional skin areas were excised, fixed in 4% formalin and embedded in paraffin. Five μm thick sections were stained with haematoxylin and eosin. The dermal thickness was analyzed at 100-fold magnification by measuring the distance between the epidermal-dermal junction and the dermal-subcutaneous fat junction at four sites from lesional skin of each mouse. Two independent examiners performed the evaluation before a consensus in case of more of 10% of variability of the measures.
The collagen content in lesional skin samples was explored by hydroxyproline assay. After digestion of punch biopsies (ø3 mm) in 6M HCl for three hours at 120° C., the pH of the samples was adjusted to 7 with 6M NaOH. Afterwards, samples were mixed with 0.06 M chloramine T and incubated for 20 min at room temperature. […] The absorbance was determined at 557 nm with a Spectra MAX 190 microplate spectrophotometer (Molecular Devices, Sunnyvale, Calif., USA).
Total soluble collagen in cell culture supernatants was quantified using a Sircol collagen assay (Biocolor). Briefly, cell culture supernatant was mixed with sirius red dye for 30 minutes at room temperature. After centrifugation, the pellet was dissolved in alkali reagent. Measurement was performed using a SpectraMax 190 microplate spectrophotometer (Molecular Devices) at a wavelength of 540 nm.
Data were expressed as mean±standard error of the mean. The Student t-test was used for statistical analyses. A p value of less than 0.05 was considered as a statistically significant result.

human PPARα = biological target: T1, human PPARα (Homo sapiens, UniProt Q07869); assay: Transient transactivation assay, Cos-7 cells, chimeric PPARα-Gal4, luciferase reporter; format: cell-based; conditions: Gal4 chimera, mean of 6 experiments
T1 sequence (Q07869 200-468 limits assumed): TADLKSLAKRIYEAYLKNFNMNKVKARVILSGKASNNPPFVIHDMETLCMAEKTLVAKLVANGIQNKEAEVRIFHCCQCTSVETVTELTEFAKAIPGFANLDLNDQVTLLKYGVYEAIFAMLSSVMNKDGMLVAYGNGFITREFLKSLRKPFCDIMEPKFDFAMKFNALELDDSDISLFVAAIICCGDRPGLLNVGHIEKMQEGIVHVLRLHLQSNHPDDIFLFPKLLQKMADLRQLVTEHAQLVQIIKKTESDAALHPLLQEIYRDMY
Experimental: (§1) Transfections were performed by a chemical agent (Jet PEI).

mouse PPARα = biological target: T2, mouse PPARα (Mus musculus, UniProt P23204); assay: as above; format: cell-based; conditions: Gal4 chimera, mean of 6 experiments
T2 sequence (P23204 200-468 limits assumed): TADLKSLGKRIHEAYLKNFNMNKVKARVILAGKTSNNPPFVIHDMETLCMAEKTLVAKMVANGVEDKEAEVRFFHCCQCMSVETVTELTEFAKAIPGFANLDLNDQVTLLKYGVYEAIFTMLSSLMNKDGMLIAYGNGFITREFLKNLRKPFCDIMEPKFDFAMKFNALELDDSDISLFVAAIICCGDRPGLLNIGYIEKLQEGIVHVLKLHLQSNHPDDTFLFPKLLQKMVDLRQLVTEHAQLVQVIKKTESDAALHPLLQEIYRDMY
Experimental: as §1

human PPARδ = biological target: T3, human PPARδ (Homo sapiens, UniProt Q03181); assay: Transient transactivation assay, Cos-7 cells, chimeric PPARδ-Gal4, luciferase reporter; format: cell-based; conditions: Gal4 chimera, mean of 6 experiments
T3 sequence (Q03181 211-441 limits assumed): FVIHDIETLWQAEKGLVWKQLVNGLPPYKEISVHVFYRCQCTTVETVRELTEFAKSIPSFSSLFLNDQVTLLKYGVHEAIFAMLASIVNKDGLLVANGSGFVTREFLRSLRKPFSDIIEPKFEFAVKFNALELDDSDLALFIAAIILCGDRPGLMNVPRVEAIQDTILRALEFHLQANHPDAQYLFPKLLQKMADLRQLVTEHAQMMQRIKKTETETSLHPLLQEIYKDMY
Experimental: as §1

mouse PPARδ = biological target: T4, mouse PPARδ (Mus musculus, UniProt P35396); assay: as above; format: cell-based; conditions: Gal4 chimera, mean of 5 experiments, estimated (plateau not reached)
T4 sequence (P35396 210-440 limits assumed): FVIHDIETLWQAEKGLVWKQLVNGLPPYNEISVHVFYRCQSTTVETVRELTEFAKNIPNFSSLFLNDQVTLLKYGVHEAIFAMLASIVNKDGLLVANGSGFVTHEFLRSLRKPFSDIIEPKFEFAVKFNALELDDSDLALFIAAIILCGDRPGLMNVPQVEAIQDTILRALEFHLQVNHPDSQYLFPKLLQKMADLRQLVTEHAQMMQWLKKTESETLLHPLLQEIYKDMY
Experimental: as §1

human PPARγ = human PPARγ (Homo sapiens, UniProt P37231); assay: cell-based
mouse PPARγ = mouse PPARγ (Mus musculus, UniProt P37238); assay: cell-based
bleomycin-exposed mice [2] = assay: Bleomycin-induced pulmonary fibrosis in mice; conditions: vs vehicle
Experimental: At the end of the treatment, animals were sacrificed and plasma samples and livers were harvested. Expression of genes that are known to be implicated in the pulmonary inflammation process was quantified and plasmatic levels of lung parameters were measured.
The animals were housed in groups of 3-10 in polypropylene cages (floor area=1032 cm^2) under standard conditions: room temperature (22±2° C.), hygrometry (55±10%), light/dark cycle (12 h/12 h), air replacement (15-20 volumes/hour), water and food (SDS, RM1) ad libitum. Mice were allowed to accommodate themselves for at least 5 days prior to the experimentation. Mice were numbered by marking their tail using indelible markers.
Bleomycin (Laboratoire Bellon) was dissolved in 0.9% NaCl (CDM Lavoisier, France) just before use.
On day 14, 2 hours after dosing, animals were anaesthetised with pentobarbital (60 mg/kg, ip) and blood was collected using cardiac puncture. […] Blood sampling (0.9 mL of total blood) was placed in pre-chilled 2-mL lithium-heparin collection tubes. The blood samples were gently mixed, placed on crushed ice and centrifuged within 30 min of sampling at approximately 1500×g for 10 min at approximately +4° C. For each blood sampling, the resultant plasma was separated into 2 aliquots (at least 100 μL each) and transferred using disposable plastic material into polypropylene tubes. The samples were immediately transferred in the upright position to a freezer where they were kept at −20° C.
After terminal blood sampling, lung tissue was removed: • A first tissue sample (middle lobe) was harvested and fixed with paraformaldehyde, and kept at 5±3° C. • A second tissue sample (right lobe) was frozen in liquid nitrogen and kept at −20° C.
For the quantification of collagen, sections were stained with Picro-Sirius red and counterstained with Mayer's haematoxylin. […] For all slides, analysis was performed by a single experimenter strictly in the same conditions.
mRNA extraction was performed on small frozen lung samples (50-100 mg). Briefly, samples were cryogenically ground with mortar and pestle. […] RNA quantity was determined with Nanodrop (ND2000 Thermo Scientific) and RNA quality was verified with Bioanalyzer (2100 Agilent Technology).
Real Time PCR was performed on ABI PRISM 7900 apparatus Raw data from ABI7900 were exported in text format. […] Each RNA samples were reverse transcribed and quantified in triplicate.
Samples of lung and supernatants were kept on ice during all experiment. For extraction, the manufacturer recommends 10 mg of tissue for 100 μl T-Per+1 μl “Halt-protease” (100×).
50 ml of T-Per buffer were prepared, to which 500 μl of “Halt-protease” (100×) were added, and the mixture was kept on ice. Samples of 50 to 70 mg of lung just thawed were weighed and cut into small pieces, and 1 ml of cold PBS was added to wash the tissue. The mixture was centrifuged at 500 g during 5 min at 4° C., and the supernatant was discarded. 100 μl/10 mg of T-Per+antiproteases (100×) were added, crushing the lung with a Potter, with 5 or 6 twists, up and down. The mixture was centrifuged at 10000 g during 5 min at 4° C. The supernatant was removed, aliquoted and kept at −20° C. for the subsequent measurement of biomarkers.
All proteins were quantified with ELISA Kit, according to the instructions of the manufacturers: • osteopontin: Quantikine Mouse Osteopontin immunoassay, R&D SYSTEMS®, Ref:MOST00 • MCP-1: Quantikine Mouse CCL2/JE/MCP-1 ELISA Kit, R&D SYSTEMS®, ref: MJE00 • TIMP-1: Mouse TIMP-1, R&D SYSTEMS®, Ref: TM100.
All parameters were analysed using Graphpad software (version 5.1). The parameters were analysed as followed: • Using one-way ANOVA (treatment) to compare groups (1, 2 and 3). […] When ANOVA was found significant, a Dunnett's test was used to compare group 1 to group 4, to group 5, to group 6 and to group 7).

Chain of human PPARγ (P37231 238-505 limits assumed): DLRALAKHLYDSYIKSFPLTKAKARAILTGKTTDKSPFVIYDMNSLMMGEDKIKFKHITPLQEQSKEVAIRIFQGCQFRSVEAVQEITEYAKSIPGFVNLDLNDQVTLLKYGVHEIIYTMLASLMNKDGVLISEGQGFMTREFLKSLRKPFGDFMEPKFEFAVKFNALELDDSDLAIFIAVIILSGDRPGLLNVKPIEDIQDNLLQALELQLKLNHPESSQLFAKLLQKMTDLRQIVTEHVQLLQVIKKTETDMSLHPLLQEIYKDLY
Chain of mouse PPARγ (P37238 238-505 limits assumed): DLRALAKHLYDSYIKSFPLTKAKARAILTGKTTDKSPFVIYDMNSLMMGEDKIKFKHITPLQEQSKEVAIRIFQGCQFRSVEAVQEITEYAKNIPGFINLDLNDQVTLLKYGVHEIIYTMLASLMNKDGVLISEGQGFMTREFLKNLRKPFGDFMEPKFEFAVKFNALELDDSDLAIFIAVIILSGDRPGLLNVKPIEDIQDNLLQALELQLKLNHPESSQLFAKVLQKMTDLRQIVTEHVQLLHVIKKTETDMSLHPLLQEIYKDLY

EC50 (human PPARα): 920 nM
EC50 (mouse PPARα): 290 nM
EC50 (human PPARδ): 530 nM
EC50 (mouse PPARδ): 2000 nM
EC50 (human PPARγ): 180 nM
EC50 (mouse PPARγ): 170 nM
Compound: O=C(O)CCCc1cc2cc(Cl)ccc2n1S(=O)(=O)c1ccc2ncsc2c1 [compound A, 5-Chloro-1-[(6-benzothiazolyl)sulfonyl]-1H-indole-2-butanoic acid]
Col1a expression (kidney) (anti-GBM exposed mice; 30 mg/kg/day po 7 days): reduced
Col3a expression (kidney) (anti-GBM exposed mice; 30 mg/kg/day po 7 days): reduced
kidney MCP-1 levels (anti-GBM exposed mice; 30 mg/kg/day po 7 days): reduced
kidney osteopontin levels (anti-GBM exposed mice; 30 mg/kg/day po 7 days): reduced
serum urea levels (anti-GBM exposed mice; 30 mg/kg/day po 7 days): reduced
urinary albumin levels (anti-GBM exposed mice; 30 mg/kg/day po 7 days): reduced
urinary volume (anti-GBM exposed mice; 30 mg/kg/day po 7 days): reduced urinary volume compared to vehicle without reaching significance
Col1a expression (kidney) (anti-GBM exposed mice; 100 mg/kg/day po 7 days): significantly inhibited Col1a expression
Col3a expression (kidney) (anti-GBM exposed mice; 100 mg/kg/day po 7 days): significantly inhibited Col3a expression
TGFβR-1 expression (kidney) (anti-GBM exposed mice; 100 mg/kg/day po 7 days): significantly inhibited TGFβ-R1 expression
kidney MCP-1 levels (anti-GBM exposed mice; 100 mg/kg/day po 7 days): significantly reduced MCP-1 levels
kidney osteopontin levels (anti-GBM exposed mice; 100 mg/kg/day po 7 days): significantly reduced osteopontin levels
number of pathological glomeruli (anti-GBM exposed mice; 100 mg/kg/day po 7 days): significantly reduced the number of pathological glomeruli
serum urea levels (anti-GBM exposed mice; 100 mg/kg/day po 7 days): significantly reduced urea levels
urinary albumin levels (anti-GBM exposed mice; 100 mg/kg/day po 7 days): reduced albumin levels compared to vehicle without reaching significance
urinary volume (anti-GBM exposed mice; 100 mg/kg/day po 7 days): reduced urinary volume compared to vehicle without reaching significance
collagen content (skin) (bleomycin-exposed mice [1]; 30 mg/kg po 21 days): significantly reduced the collagen content
dermal thickness (bleomycin-exposed mice [1]; 30 mg/kg po 21 days): significantly reduced dermal thickness
hydroxyproline content in lesioned skin (bleomycin-exposed mice [1]; 30 mg/kg po 21 days): significantly lower
collagen content (skin) (bleomycin-exposed mice [1]; 100 mg/kg po 21 days): significantly reduced the collagen content
dermal thickness (bleomycin-exposed mice [1]; 100 mg/kg po 21 days): more significantly reduced dermal thickness
hydroxyproline content in lesioned skin (bleomycin-exposed mice [1]; 100 mg/kg po 21 days): significantly lower
MCP-1 expression (lung) (bleomycin-exposed mice [2]; 30 mg/kg/day po 15 days): inhibited MCP-1 expression compared to vehicle without reaching significance
TIMP-1 expression (lung) (bleomycin-exposed mice [2]; 30 mg/kg/day po 15 days): inhibited TIMP-1 expression compared to vehicle without reaching significance
lung MCP-1 levels (bleomycin-exposed mice [2]; 30 mg/kg/day po 15 days): reduced MCP-1 levels compared to vehicle without reaching significance
lung TIMP-1 levels (bleomycin-exposed mice [2]; 30 mg/kg/day po 15 days): significantly reduced TIMP-1 levels
lung osteopontin levels (bleomycin-exposed mice [2]; 30 mg/kg/day po 15 days): reduced osteopontin levels compared to vehicle without reaching significance
osteopontin expression (lung) (bleomycin-exposed mice [2]; 30 mg/kg/day po 15 days): significantly inhibited osteopontin expression
Col1a expression (lung) (bleomycin-exposed mice [2]; 100 mg/kg/day po 15 days): significantly inhibited Col1a expression
Col3a expression (lung) (bleomycin-exposed mice [2]; 100 mg/kg/day po 15 days): significantly inhibited Col3a expression
MCP-1 expression (lung) (bleomycin-exposed mice [2]; 100 mg/kg/day po 15 days): inhibited MCP-1 expression compared to vehicle without reaching significance
TGFβR-1 expression (lung) (bleomycin-exposed mice [2]; 100 mg/kg/day po 15 days): significantly inhibited TGFβR-1 expression
TIMP-1 expression (lung) (bleomycin-exposed mice [2]; 100 mg/kg/day po 15 days): inhibited TIMP-1 expression compared to vehicle without reaching significance
collagen deposition (lung) (bleomycin-exposed mice [2]; 100 mg/kg/day po 15 days): significantly decreased collagen deposition levels
fibronectin expression (lung) (bleomycin-exposed mice [2]; 100 mg/kg/day po 15 days): significantly inhibited fibronectin expression
lung MCP-1 levels (bleomycin-exposed mice [2]; 100 mg/kg/day po 15 days): reduced MCP-1 levels compared to vehicle without reaching significance
lung TIMP-1 levels (bleomycin-exposed mice [2]; 100 mg/kg/day po 15 days): significantly reduced TIMP-1 levels
lung osteopontin levels (bleomycin-exposed mice [2]; 100 mg/kg/day po 15 days): reduced osteopontin levels compared to vehicle without reaching significance
osteopontin expression (lung) (bleomycin-exposed mice [2]; 100 mg/kg/day po 15 days): significantly inhibited osteopontin expression
